Results from patent US9795646B2, “Boswellia oil, its fractions and compositions for enhancing brain function” (LAILA NUTRACEUTICALS, priority 2010, dated 2017).
pIC50: −log10 of the molar value. Values after ≈ are worked out from the molar mass of the structure shown. Values joined by “and” are separate entries in the source; they are usually repeats but may differ in a detail not shown here. Equal values may be shown once.

Experiments:
[1] = biological target: T1, acetylcholine esterase (AChE) (Rattus norvegicus, UniProt P37136); test: Acetylcholine esterase inhibitory activity in β-amyloid peptide induced PC 12 cells; type: cell-based; conditions: PC 12 cells
T1 construct: The cell extracts were used as samples for measuring the acetylcholine esterase (AChE) activity; endogenous in cells; host or cells: rat pheochromocytoma PC 12 cells, induced with β-amyloid peptide
T1 sequence (P37136 32-614): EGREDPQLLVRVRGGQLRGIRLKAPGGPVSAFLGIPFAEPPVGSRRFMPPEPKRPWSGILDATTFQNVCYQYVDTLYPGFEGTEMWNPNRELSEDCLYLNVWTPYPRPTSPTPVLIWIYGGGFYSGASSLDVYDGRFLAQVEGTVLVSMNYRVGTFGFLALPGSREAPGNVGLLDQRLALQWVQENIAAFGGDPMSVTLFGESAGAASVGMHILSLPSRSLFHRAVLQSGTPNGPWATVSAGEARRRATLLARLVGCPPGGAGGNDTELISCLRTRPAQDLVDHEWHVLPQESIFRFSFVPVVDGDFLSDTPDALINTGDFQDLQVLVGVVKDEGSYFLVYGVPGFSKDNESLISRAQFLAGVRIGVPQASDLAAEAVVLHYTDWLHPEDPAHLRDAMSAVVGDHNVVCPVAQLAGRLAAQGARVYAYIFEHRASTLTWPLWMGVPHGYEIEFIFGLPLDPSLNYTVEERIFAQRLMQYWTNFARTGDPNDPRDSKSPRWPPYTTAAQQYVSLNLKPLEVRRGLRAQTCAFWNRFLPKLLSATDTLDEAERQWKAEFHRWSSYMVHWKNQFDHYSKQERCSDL
Experimental: (§1) As a part of developing new agents for improving brain/mental function and alleviating disease conditions related to cognition and memory deficits, a large number of plant extracts have been screened for their inhibitory property on Acetylcholinesterase enzyme activity. The assay was performed in vitro by the method of Ellman et al., with minor modifications, using acetylthiocholine iodide as a substrate (Lee J. H., et. al. Arch Pharm Res 2004, 27(1): 53-56). […] Its acetylcholinesterase inhibitory activity was also evaluated by a cell based in vitro assay in Rat pheochromocytoma PC 12 cells. […] Rat pheochromocytoma PC 12 cells were equally distributed with phenol red free Dulbecco's modified Eagle's red medium (DMEM) (Sigma Life Science, USA) containing 10% fetal bovine serum (FBS) in 24-well plate. […] Thereafter, cells were induced with 1 μg/mL of β-amyloid peptide (Calbiochem, USA) for 24 h at 37° C. After 24 h, cells were collected and washed twice with 1×PBS by centrifugation at 1200 rpm for 5 min at 4° C. The cell extracts were prepared in solubilization buffer and the cell lysates were analyzed for acetylcholine esterase (AChE) activity.
The inhibitory property on the enzyme activity was assessed in β-amyloid peptide induced-rat pheochromocytoma PC 12 cells. Rat pheochromocytoma PC 12 cells were equally distributed with phenol red free Dulbecco's modified Eagle's red medium (DMEM) (Sigma Life Science, USA) containing 10% fetal bovine serum (FBS) in 24-well plate. […] Thereafter, cells were induced with 1 μg/mL of β-amyloid peptide (Calbiochem, USA) for 24 h at 37° C. After 24 h, cells were collected and washed twice with 1×PBS by centrifugation at 1200 rpm for 5 min at 4° C. Cell extracts were prepared in solubilization buffer (10 mM Tris, pH 7.2; 100 mM NaCl, 50 mM MgCl2, 1% Triton X-100). The cell extracts were used as samples for measuring the acetylcholine esterase (AChE) activity.
Cell extract samples (100 μl) were dispensed into each well of 96-well microtitre plate. Fifty micro liters of DTNB (Dithiobisnitro benzoate) solution was added to each well and incubated for 5 min at room temperature. After incubation, 50 μl of acetyl choline iodide solution was added to each well and absorbance was read immediately at 405 nm for 12 min at 2 min intervals. A standard curve was constructed by using serial concentrations of acetyl cholinesterase (0-100 mU). Total protein present in 100 μl aliquot of cell extract was calculated by Bradford method and the enzyme activity was normalized and expressed as unit activity per milligram of protein.

Sprague Dawley rats = test: Spatial learning and memory improvement, elevated radial arm maze (RAM); type: in vivo, rat; conditions: positive control 150 mg/kg, vs control group
Excerpt: The animal study protocol was approved by institutional animal ethics committee. Sprague Dawley rats were acclimatized for one week and healthy rats were selected for the study. The selected rats were pre-trained in elevated radial arm maze (RAM) adapted rats were allocated to various treatment groups each containing eight rats. After completion of pre-training, the oral treatment was initiated to the animals and continued daily up to two weeks. During this treatment phase the rats were placed on the RAM for 10 min each to recognize the food pellets present in the three different colored arms. During training the spatial learning was estimated by measuring various parameters like number of days required to learn the task, latency in finding food and number of wrong entries/attempts. After this treatment and training the animals were given rest without treatment or training for one week (3rd week). On 4th week, the animals were treated with allocated doses of test products and memory retention test was assessed using the same animals by measuring latency and number of wrong entries. The data was analyzed using ANOVA followed by a suitable post-hoc test.

Acetylcholinesterase = Acetylcholinesterase (Homo sapiens, UniProt P22303); test: Acetylcholinesterase inhibitory activity, in vitro enzymatic assay (Ellman method); type: biochemical; conditions: Table 3
Acetylcholinesterase, sequence (P22303 32-614, species assumed): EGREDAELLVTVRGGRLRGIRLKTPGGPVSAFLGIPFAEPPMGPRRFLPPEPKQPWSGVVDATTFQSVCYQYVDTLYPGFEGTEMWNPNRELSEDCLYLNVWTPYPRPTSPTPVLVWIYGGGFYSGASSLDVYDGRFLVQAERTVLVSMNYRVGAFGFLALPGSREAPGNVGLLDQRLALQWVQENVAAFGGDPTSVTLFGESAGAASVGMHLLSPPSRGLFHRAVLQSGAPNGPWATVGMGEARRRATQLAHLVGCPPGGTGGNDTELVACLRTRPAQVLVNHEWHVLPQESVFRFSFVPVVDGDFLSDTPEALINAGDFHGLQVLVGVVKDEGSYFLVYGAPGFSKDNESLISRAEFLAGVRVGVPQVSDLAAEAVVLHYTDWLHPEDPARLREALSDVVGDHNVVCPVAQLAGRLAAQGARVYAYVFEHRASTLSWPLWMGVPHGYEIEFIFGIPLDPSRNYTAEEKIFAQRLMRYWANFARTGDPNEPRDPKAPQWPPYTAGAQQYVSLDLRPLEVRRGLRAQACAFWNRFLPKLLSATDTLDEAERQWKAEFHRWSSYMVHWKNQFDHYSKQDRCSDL
Experimental: as §1
Acetylcholinesterase activity is measured using the substrate acetylthiocholine iodide, which is converted to thiocholine. The reaction of thiocholine with the chromogenic substrate Dithionitrobenzoic acid (DTNB) leads to the formation of a yellow anion, Nitrobenzoic acid, which absorbs strongly at 412 nm. Incubation was done for 10 min.
The AChE assay was performed by the method of Ellman et al, with minor modifications, using acetylthiocholine iodide as a substrate (Lee J. H., et. al. Arch Pharm Res 2004, 27(1): 53-56). Ellmans reaction mixture contains 0.5 mM acetylthiocholine iodide and 1 mM 5,5′-dithio-bis-(2-nitrobenzoic acid) in a 50 mM sodium phosphate buffer (pH 8.0). […] For blanks, enzyme was replaced with phosphate buffer. The reaction mixture was mixed thoroughly, 100 μl of Ellman's reagent was added and incubated at room temperature for 10 min. The absorbance was measured at 412 nm using microplate reader. The percentage inhibition of enzyme activity was calculated by comparing OD's of tests wells with that of control wells using the following formula. Calculations: % inhibition=[(control−sample)/control]×100.

5-lipoxygenase (5-LOX) = biological target: T2, 5-lipoxygenase (5-LOX) (Homo sapiens, UniProt P09917); conditions: read-out: IC50 (5-LOX inhibition); cited from earlier work
T2 sequence (P09917 1-674): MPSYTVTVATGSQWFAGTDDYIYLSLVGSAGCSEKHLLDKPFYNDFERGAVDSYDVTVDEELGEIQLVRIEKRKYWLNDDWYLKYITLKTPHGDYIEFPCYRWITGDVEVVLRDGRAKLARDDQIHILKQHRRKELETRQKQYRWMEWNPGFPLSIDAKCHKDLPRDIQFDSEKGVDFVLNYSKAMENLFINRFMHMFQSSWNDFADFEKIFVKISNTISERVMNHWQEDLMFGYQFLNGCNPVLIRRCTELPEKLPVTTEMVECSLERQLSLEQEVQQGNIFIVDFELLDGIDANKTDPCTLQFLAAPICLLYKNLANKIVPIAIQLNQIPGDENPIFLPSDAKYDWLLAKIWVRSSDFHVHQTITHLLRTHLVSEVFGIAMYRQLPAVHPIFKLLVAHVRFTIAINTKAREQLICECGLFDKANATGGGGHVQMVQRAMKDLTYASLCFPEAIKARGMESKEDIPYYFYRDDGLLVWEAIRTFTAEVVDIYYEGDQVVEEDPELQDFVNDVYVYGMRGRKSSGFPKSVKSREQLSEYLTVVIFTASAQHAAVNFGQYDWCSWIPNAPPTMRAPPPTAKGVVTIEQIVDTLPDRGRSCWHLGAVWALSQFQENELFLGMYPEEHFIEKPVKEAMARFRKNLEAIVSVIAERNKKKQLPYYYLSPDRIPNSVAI

[2] = Comparative bioavailability of LI01008 (bisdemethylcurcumin) and its composition (serum, HPLC); conditions: oral, LI13124F1 450 mg/kg, LI01008 300 mg/kg

Row | Compound | % Inhibition at concentrations of 25 ng (Acetylcholinesterase) [%] | % Inhibition at concentrations of 50 ng (Acetylcholinesterase) [%] | % Inhibition at concentrations of 100 ng (Acetylcholinesterase) [%] | IC50 (Acetylcholinesterase) [µg/mL] | % inhibition in AChE activity ([1]; 100 ng/ml, Table 5) [%] | further results
1 | CN(C)C(=O)Oc1cccc([N+](C)(C)C)c1 [Neostigmin] | – | – | – | – | – | % inhibition in AChE activity ([1]; 20 ng/ml, Table 4): 49.1% and 49.09%; % inhibition in AChE activity ([1]; 20 ng/ml, Table 5): 54.65%
2 | NC(=O)CN1CCCC1=O [Piracetam] | – | – | – | – | – | spatial learning (reduction in latency and Number of wrong entries) (Sprague Dawley rats): significant improvement
3 | 3-O-acetyl-11-keto-β-boswellic acid | 9.64 | 16.07 | 27.5 | >0.1 | 41.67 | pIC50 (5-lipoxygenase (5-LOX)): 5.82
4 | CC1(C)CC[C@]2(C)CC[C@]3(C)C(=CC[C@@H]4[C@@]5(C)CC[C@@H](O)[C@](C)(C(=O)O)[C@@H]5CC[C@]43C)[C@@H]2C1 [α-boswellic acid] | 13.85 | 21.92 | 39.23 | >0.1 | 38.42 | –
5 | C[C@H]1[C@H](C)CC[C@]2(C)CC[C@]3(C)C(=CC(=O)[C@@H]4[C@@]5(C)CC[C@@H](O)[C@](C)(C(=O)O)[C@@H]5CC[C@]43C)[C@H]12 [11-keto-β-boswellic acid] | 11.82 | 16.36 | 24.55 | >0.1 | 31.39 | –
6 | C[C@H]1[C@H](C)CC[C@]2(C)CC[C@]3(C)C(=CC[C@@H]4[C@@]5(C)CC[C@@H](O)[C@](C)(C(=O)O)[C@@H]5CC[C@]43C)[C@H]12 [β-boswellic acid] | 16.75 | 21.23 | 31.37 | >0.1 | 46.54 | –
7 | CC(=O)O[C@@H]1CC[C@@]2(C)[C@@H](CC[C@]3(C)[C@@H]2CC=C2[C@@H]4[C@@H](C)[C@H](C)CC[C@]4(C)CC[C@]23C)[C@@]1(C)C(=O)O [3-O-acetyl-β-boswellic acid] | 36.29 | 40.32 | 52.02 | 0.09177 (≈ 0.184 µM) | 37.34 | –
8 | CC(=O)O[C@@H]1CC[C@@]2(C)[C@@H](CC[C@]3(C)[C@@H]2CC=C2[C@@H]4CC(C)(C)CC[C@]4(C)CC[C@]23C)[C@@]1(C)C(=O)O [3-O-acetyl-α-boswellic acid] | 14.86 | 21.28 | 33.11 | >0.1 | 29.22 | –
9 | O=C(/C=C/c1ccc(O)c(O)c1)CC(=O)/C=C/c1ccc(O)c(O)c1 [LI 01008, bisdemethylcurcumin] | – | – | – | – | – | Serum concentration of bisdemethylcurcumin ([2]; time after admn. 0, suspension in 0.5% CMC): 0; Serum concentration of bisdemethylcurcumin ([2]; time after admn. 0.5 (hours)): 0.07; Serum concentration of bisdemethylcurcumin ([2]; time after admn. 1 (hours)): 0.1085; Serum concentration of bisdemethylcurcumin ([2]; time after admn. 2 (hours)): 0.078; Serum concentration of bisdemethylcurcumin ([2]; time after admn. 4 (hours)): 0.035; Serum concentration of bisdemethylcurcumin ([2]; time after admn. 6 (hours)): 0.00535; Serum concentration of bisdemethylcurcumin ([2]; time after admn. 8 (hours)): 0; Serum concentration of bisdemethylcurcumin ([2]; time after admn. 12 (hours)): 0
